The numbers were not newly measured in patent US9572894B2, “Biodegradable particulate formulations” (The University of Iowa Research Foundation, priority 2010, dated 2017), which cites them from elsewhere.

The series has as its system gliomas. Particulars: ten daily i.t. injections.

With `COc1cccc2c1C(=O)c1c(O)c3c(c(O)c1C2=O)C[C@@](O)(C(=O)CO)C[C@@H]3O[C@H]1C[C@H](N)[C@H](O)[C@H](C)O1` [doxorubicin], the reported toxicity result is on record as “limited to headache” and the “subjects with local regression” value was “six of the ten”.
